Laboratory results from patent EP0042553B1, “Antitumor compositions” (Bristol-Myers Company, priority 1980, dated 1981).
Structures can show the parent of a compound that is named as a salt.

Columns and labels:
[1] = prior art statement; cited from earlier work
[2] = Solubility in water; format: physicochemical
[3] = tested on: animal tumor systems; details: Cain, et al., Europ. J. Cancer 10:539-549 (1974); cited from earlier work
[4] = Compatibility with ions in aqueous solution; format: physicochemical; details: insoluble precipitates form
Protocol: The solid compositions (all three types) provided according to the present invention are reconstituted with sterile water or sterile aqueous vehicle. The preferred unit dosage forms described above may, for example, be reconstituted with one milliliter of sterile water or sterile aqueous vehicle to form relatively concentrated m-AMSA solutions or such solutions may be diluted to form more dilute (e.g. 5 mg/ml m-AMSA activity) solutions. […] Reconstitution, therefore, should be effected with vehicles substantially free of the above-mentioned ions.
Caution: Solutions of m-AMSA are incompatible with chloride, sulfate, phosphate and carbonate ions. Precipitates form.

[5] = Stability / clarity of reconstituted aqueous solution; format: physicochemical
Protocol: Stability: 15 mg salt was reconstituted with 10 ml sterile water.
The product salt may be reconstituted with water to give a 5-7.5 mg/ml solution which remains clear at 17°C for at least 6 hours.
(§1) The above mixture can be rapidly (<3 min.) reconstituted with sterile water. The 50 mg/ml solution and 1, 2, 5 and 10 mg/ml dilutions remain clear for at least 24 hours at 15-20°C.
(§2) The above mixture is made according to the general procedure of Example 5.

[6] = Reconstitution time with water; format: physicochemical; details: 5, 7.5 and 10 mg/ml; at 24°C (75°F)
Protocol: Reconstituted aqueous solutions of 5, 7.5 and 10 mg/ml were readily obtained with 3 minutes shaking at 24°C (75°F). Solubility of the salt in water at room temperature is at least 15 mg/ml.
as §1, §2

COc1cc(NS(C)(=O)=O)ccc1Nc1c2ccccc2nc2ccccc12.Cl [monohydrochloride]
solubility in water (in words) [1]: insufficiently water-soluble

COc1cc(NS(C)(=O)=O)ccc1Nc1c2ccccc2nc2ccccc12 [Preparation 9, Crystalline m-AMSA monogluconate salt]
solubility ([2]; at 50-60°C): 30 mg/mL

COc1cc(NS(C)(=O)=O)ccc1Nc1c2ccccc2nc2ccccc12 [m-AMSA, 4'-(9-acridinylamino)-methanesulfon-m-anisidide]
antitumor activity [3]: significant antitumor activity
solubility in water (in words) [1]: very limited
compatibility in aqueous solution with chloride, sulfate, phosphate and carbonate ions [4]: incompatible

COc1cc(NS(C)(=O)=O)ccc1Nc1c2ccccc2nc2ccccc12 [Preparation 4, Crystalline L(+)-Monolactate hemiacetonate of m-AMSA]
activity loss ([5]; 15 mg salt in 10 ml sterile water, after 2 weeks storage at 45°C): < 6%
Stability: time the solution was stable ([5]; 15 mg salt reconstituted with 10 ml sterile water): at least 24 hours

COc1cc(NS(C)(=O)=O)ccc1Nc1c2ccccc2nc2ccccc12.CS(=O)(=O)O [monomethanesulfonate]
solubility in water (in words) [1]: insufficiently water-soluble

COc1cc(NS(C)(=O)=O)ccc1Nc1c2ccccc2nc2ccccc12 [Preparation 6, Crystalline DL-Monolactate acetone solvate of m-AMSA]
solubility ([2]; at room temperature): ≥ 15 mg/mL
shaking time to obtain reconstituted aqueous solutions [6]: 3 min
time solution remains clear ([5]; 5-7.5 mg/ml solution in water at 17°C): at least 6 hours
